According to article PMC7572570 (Clinical cancer research : an official journal of the …, 2020):
Several values for one entry are separate records, joined by “and”; a condition that tells them apart may be missing. Equal values may be shown once. Read-outs that look alike come from different tables or passages of the source.

What was measured:
[1] = Safety, dose-limiting toxicity and treatment-emergent adverse events
[2] = in vivo
[3] = system: select advanced solid tumors or hematologic malignancies; experiment: Treatment duration and antitumor activity; assay type: in vivo, human; settings: all cohorts, heavily pre-treated population with liver dysfunction
clinical = settings: human, plasma
[4] = population PK analysis in patients with CTCL and PTCL; cited from earlier work
[5] = mild hepatic impairment 14 mg/m^2 vs normal 14 mg/m^2
[6] = moderate hepatic impairment 7 mg/m^2 vs normal 14 mg/m^2
[7] = patients who did not experience a DLT
[8] = severe hepatic impairment 5 mg/m^2 vs normal 14 mg/m^2
[9] = the two patients who had DLTs (individual values)
[10] = Severe (D) n=6, 5 mg/m^2, treatment-related TEAE, Cycle 1
[11] = Total n=31, all cohorts, treatment-related TEAE, Cycle 1

SMILES: C/C=C1\NC(=O)[C@H]2CSSCC/C=C/[C@H](CC(=O)N[C@H](C(C)C)C(=O)N2)OC(=O)[C@H](C(C)C)NC1=O [romidepsin]
- plasma concentrations at last time point (48 hours after initiation of the infusion): still quantifiable at the 48-hour time point
- T1/2 (terminal half-life) (Mild Cohort B, 14 mg/m^2 IV, geometric mean ± SD): 13.55±1.41 (7) hr
- change of clearance with hepatic function (compared to the normal hepatic function cohort): clearance decreased with worsening hepatic function
- geometric mean AUCINF as % of normal hepatic function cohort [5]: ~144%
- geometric mean Cmax as % of normal hepatic function cohort [5]: approximately 115%
- geometric mean AUCINF as % of normal hepatic function cohort [6]: 114%
- geometric mean Cmax as % of normal hepatic function cohort [6]: 96%
- dose-normalized AUCINF (AUCINF/D), range [7]: 29.9 to 507.4 ng·h/mL/mg
- dose-normalized Cmax (Cmax/D), range [7]: 7.3 to 84.6 ng/mL/mg
- time at which plasma concentrations reached a plateau (post infusion initiation (first sample collected), 4-hour IV infusion): approximately 1 hour
- geometric mean AUCINF as % of normal hepatic function cohort [8]: 116%
- geometric mean Cmax as % of normal hepatic function cohort [8]: approximately 95%
- clearance [9]: 6.8 L/h
- dose-normalized AUCINF (AUCINF/D) [9]: 192.4 ng·h/mL/mg and 146.6 ng·h/mL/mg
- dose-normalized Cmax (Cmax/D) [9]: 32.1 ng/mL/mg and 40.5 ng/mL/mg
- Flu-like symptoms (malaise), Any Grade [1, 10]: 1 (17%) n (%)
- Infections, Any Grade [1, 10]: 1 (17%) n (%)
- Flu-like symptoms (malaise), Any Grade [1, 11]: 3 (10%) n (%)
- Infections, Any Grade [1, 11]: 4 (13%) n (%)
- Infections, Grade 3 or 4 [1, 11]: 1 (3%) n (%)
- subjects who discontinued before the end of Cycle 1 due to death ([1]; all cohorts, n): 5
- Alkaline phosphatase increased, Any Grade ([2]; human): 1 (3%) n (%)
- Anorexia, Any Grade ([2]; human): 11 (35%) n (%)
- ECG changes (QT, ST-T changes), number of patients ([2]; human): 4
- ECG changes (QT, ST-T changes), patients ([2]; human): 23%
- Aspartate aminotransferase increased, Any Grade ([2]; human, 28 day): 1 (3%) n (%)
- Asthenia, Any Grade ([2]; human, 28 day): 3 (10%) n (%)
- Bradycardia, Any Grade ([2]; human, 28 day): 1 (3%) n (%)
- Creatinine increased, Any Grade ([2]; human, 28 day): 2 (6%) n (%)
- aPTT increased, Any Grade ([2]; human, 28 day): 1 (3%) n (%)
- decreased white blood cell counts, all grade treatment-emergent adverse event ([2]; human, 28 day): 55%
- subjects who discontinued before the end of Cycle 1 due to an adverse event ([2]; human, 28 day): 3
- vomiting, all grade treatment-emergent adverse event ([2]; human, 28 day): 42%
- Abdominal distension, Any Grade ([2]; human, 28 days): 1 (3%) n (%)
- Abdominal pain, Any Grade ([2]; human, 28 days): 1 (3%) n (%)
- Anemia, Any Grade ([2]; human, 28 days): 9 (29%) n (%)
- Anemia, Grade 3 or 4 ([2]; human, 28 days): 1 (3%) n (%)
- Diarrhea, Any Grade ([2]; human, 28 days): 2 (6%) n (%)
- Dizziness, Any Grade ([2]; human, 28 days): 2 (6%) n (%)
- Dry mouth, Any Grade ([2]; human, 28 days): 1 (3%) n (%)
- Dry skin, Any Grade ([2]; human, 28 days): 1 (3%) n (%)
- Dysgeusia, Any Grade ([2]; human, 28 days): 3 (10%) n (%)
- Dyspepsia, Any Grade ([2]; human, 28 days): 1 (3%) n (%)
- Fatigue, Any Grade ([2]; human, 28 days): 13 (42%) n (%)
- Fatigue, Grade 3 or 4 ([2]; human, 28 days): 2 (6%) n (%)
- Gastric haemorrhage, Any Grade ([2]; human, 28 days): 1 (3%) n (%)
- Gastric haemorrhage, Grade 3 or 4 ([2]; human, 28 days): 1 (3%) n (%)
- Generalized pain, Any Grade ([2]; human, 28 days): 1 (3%) n (%)
- Glossodynia, Any Grade ([2]; human, 28 days): 1 (3%) n (%)
- Headache, Any Grade ([2]; human, 28 days): 4 (13%) n (%)
- Hypercalcemia, Any Grade ([2]; human, 28 days): 1 (3%) n (%)
- Hyperuricemia, Any Grade ([2]; human, 28 days): 1 (3%) n (%)
- Hypoalbuminemia, Any Grade ([2]; human, 28 days): 3 (10%) n (%)
- Hypocalcemia, Any Grade ([2]; human, 28 days): 1 (3%) n (%)
- Hypoglycemia, Any Grade ([2]; human, 28 days): 1 (3%) n (%)
- Hypokalemia, Any Grade ([2]; human, 28 days): 1 (3%) n (%)
- Hypomagnesmia, Any Grade ([2]; human, 28 days): 1 (3%) n (%)
- Hyponatremia, Any Grade ([2]; human, 28 days): 4 (13%) n (%)
- Hypotension, Any Grade ([2]; human, 28 days): 1 (3%) n (%)
- Hypotension, Grade 3 or 4 ([2]; human, 28 days): 1 (3%) n (%)
- Muscle cramping, Any Grade ([2]; human, 28 days): 1 (3%) n (%)
- Nausea, Any Grade ([2]; human, 28 days): 21 (68%) n (%)
- Nausea, Grade 3 or 4 ([2]; human, 28 days): 2 (6%) n (%)
- Peripheral neuropathy, Any Grade ([2]; human, 28 days): 2 (6%) n (%)
- Photophobia, Any Grade ([2]; human, 28 days): 1 (3%) n (%)
- QTc prolongation, Any Grade ([2]; human, 28 days): 7 (23%) n (%)
- Tachycardia, Any Grade ([2]; human, 28 days): 2 (6%) n (%)
- Thrombocytopenia, Any Grade ([2]; human, 28 days): 16 (52%) n (%)
- Thrombocytopenia, Grade 3 or 4 ([2]; human, 28 days): 1 (3%) n (%)
- Vomiting, Any Grade ([2]; human, 28 days): 13 (42%) n (%)
- WBC decrease, Any Grade ([2]; human, 28 days): 17 (55%) n (%)
- WBC decrease, Grade 3 or 4 ([2]; human, 28 days): 7 (23%) n (%)
- Weight loss, Any Grade ([2]; human, 28 days): 1 (3%) n (%)
- Torsades de Pointes or other treatment-emergent arrhythmia [2]: no cases of Torsades de Pointes or other treatment-emergent arrhythmia
- dose-limiting toxicity [2]: without DLT
- dose-limiting toxicity, patients [2]: two patients
- stable disease as best clinical response [3]: 12 patients
- clearance (clinical; intravenous, clearance, range, patients who did not experience a DLT): 33.3 to 557 mL/min
- half-life (clinical; iv, 5 mg/m2): 14.5 ± 4.25 h
- clearance (clinical; iv, 5 mg/m2, Cl (systemic clearance), Severe Cohort D, 5 mg/m^2 IV, geometric mean ± SD): 80 mL/min
- Vd (clinical; iv, 5 mg/m2, V (volume of distribution), Severe Cohort D, 5 mg/m^2 IV, geometric mean ± SD): 15.4 ± 5.1 L
- half-life (clinical; iv, 7 mg/m2): 14.1 ± 3.88 h
- clearance (clinical; iv, 7 mg/m2, Cl (systemic clearance), Moderate Cohort C, 7 mg/m^2 IV, geometric mean ± SD): 115 mL/min
- Vd (clinical; iv, 7 mg/m2, V (volume of distribution), Moderate Cohort C, 7 mg/m^2 IV, geometric mean ± SD): 19 ± 6.4 L
- half-life (clinical; iv, 14 mg/m2): 11.1 ± 2.1 h
- clearance (clinical; iv, 14 mg/m2, Cl (systemic clearance), Mild Cohort B, 14 mg/m^2 IV, geometric mean ± SD): 160 mL/min
- clearance (clinical; iv, 14 mg/m2, Cl (systemic clearance), Normal Cohort A, 14 mg/m^2 IV, geometric mean ± SD): 270 mL/min
- Vd (clinical; iv, 14 mg/m2, V (volume of distribution), Mild Cohort B, 14 mg/m^2 IV, geometric mean ± SD): 17.1 ± 2.5 L
- Vd (clinical; iv, 14 mg/m2, V (volume of distribution), Normal Cohort A, 14 mg/m^2 IV, geometric mean ± SD): 20.7 ± 12.5 L
- effect of mild hepatic impairment on exposure [4]: no effect on romidepsin exposure
